One block for each molecule: values may come before it. Activity calls are given as the source filed them. The rule behind the calls is not given here.
Tests used:
NCI-H358 [1] = assay: Antiproliferative activity against human NCI-H358 cells harboring KRAS G12C mutant assessed as inhibition of cell proliferation incubated for 48 hrs by MTT assay; format: functional, cell-based; settings: NCI-H358, 48 h
MIA PaCa-2 [2] = assay: Antiproliferative activity against human MIA PaCa-2 cells harboring KRAS G12C mutant assessed as inhibition of cell proliferation incubated for 48 hrs by MTT assay; format: functional, cell-based; settings: MIA PaCa-2, 48 h
[3] = system: von Hippel-Lindau disease tumor suppressor/GTPase KRas (Homo sapiens), P01116+P40337 [G12C]; assay: Protac activity at VHL/KRAS G12C mutant in human NCI-H358 cells assessed as induction of KRAS G12C protein degradation at 1 uM incubated for 24 hrs by Western blot analysis; format: cell-based
[4] = system: von Hippel-Lindau disease tumor suppressor/GTPase KRas (Homo sapiens), P01116+P40337 [G12C]; assay: Protac activity at VHL/KRAS G12C mutant in human NCI-H358 cells assessed as induction of KRAS G12C protein degradation at 10 uM incubated for 24 hrs by Western blot analysis; format: cell-based
[5] = system: von Hippel-Lindau disease tumor suppressor/GTPase KRas (Homo sapiens), P01116+P40337 [G12C]; assay: Protac activity at VHL/KRAS G12C mutant in human NCI-H358 cells assessed as induction of KRAS G12C protein degradation at 10 uM preincubated for 1 hr with proteasome inhibitor, MG-132 followed by compound addition and measured after 24 hrs by Western blot analysis; format: cell-based
MIA PaCa-2 [6] = assay: Antiproliferative activity against human MIA PaCa-2 cells harboring KRAS G12C mutant assessed as inhibition of cell growth; format: functional, cell-based
NCI-H358 [7] = assay: Inhibition of ERK phosphorylation in human NCI-H358 cells at 1 to 10 uM incubated for 24 hrs by Western blot analysis; format: cell-based; settings: dose 1-10 µM
[8] = system: von Hippel-Lindau disease tumor suppressor/GTPase KRas (Homo sapiens), P01116+P40337 [G12C]; assay: Protac activity at VHL/KRAS G12C mutant in human NCI-H358 cells assessed as induction of KRAS G12C protein degradation incubated for 24 hrs by Western blot analysis; format: cell-based; settings: dose 5-25 µM
NCI-H358 [9] = assay: Antiproliferative activity against human NCI-H358 cells harboring KRAS G12C mutant assessed as inhibition of cell growth; format: functional, cell-based
[10] = system: GTPase KRas (Homo sapiens), P01116 [G12C]; assay: In vivo target occupancy at KRAS G12C mutant in human MIA PaCa-2 cells xenografted athymic BALB/c nude mouse measured at 30 mins; format: functional, cell-based
GTPase KRas (Homo sapiens), P01116 [G12C], sequence (P01116 whole entry G12C): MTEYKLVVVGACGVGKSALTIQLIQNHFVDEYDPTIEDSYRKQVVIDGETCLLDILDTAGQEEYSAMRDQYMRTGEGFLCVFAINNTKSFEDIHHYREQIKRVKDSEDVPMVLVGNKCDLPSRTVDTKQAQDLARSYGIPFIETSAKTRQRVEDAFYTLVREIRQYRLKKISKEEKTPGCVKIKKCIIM

[11] = system: Protein cereblon/GTPase KRas (Homo sapiens), P01116+Q96SW2 [G12C]; assay: Protac activity at CRBN/KRAS G12C mutant in human NCI-H358 cells assessed as induction of KRAS G12C protein degradation at 1 uM incubated for 24 hrs by Western blot analysis; format: cell-based
[12] = system: Protein cereblon/GTPase KRas (Homo sapiens), P01116+Q96SW2 [G12C]; assay: Protac activity at CRBN/KRAS G12C mutant in human NCI-H358 cells assessed as induction of KRAS G12C protein degradation at 10 uM preincubated for 1 hr with proteasome inhibitor, MG-132 followed by compound addition and measured after 24 hrs by Western blot analysis; format: cell-based
NCI-H358 [13] = assay: Antiproliferative activity against human NCI-H358 cells harboring KRAS G12C mutant assessed as inhibition of cell growth incubated for 5 days by celltiter-glow luminescent cell viability assay; format: functional, cell-based; settings: NCI-H358, 120 h
MIA PaCa-2 [14] = assay: Antiproliferative activity against human MIA PaCa-2 cells harboring KRAS G12C mutant assessed as inhibition of cell growth incubated for 5 days by celltiter-glow luminescent cell viability assay; format: functional, cell-based; settings: MIA PaCa-2, 120 h
GTPase KRas = GTPase KRas (Homo sapiens, UniProt P01116, G12C); assay: Induction of KRAS G12C degradation in human MIA PaCa-2 cells assessed as reduction in KRAS G12C protein level incubated for 24 hrs by immunoblotting analysis; format: cell-based
GTPase KRas, sequence (P01116 whole entry G12C): as above

SMILES: C=CC(=O)N1CCN(c2nc(=O)n(-c3ccc(C(=O)NCCCCCC(=O)N[C@H](C(=O)N4C[C@H](O)C[C@H]4C(=O)NCc4ccc(-c5scnc5C)cc4)C(C)(C)C)cc3C(C)C)c3cc(-c4ccccc4Cl)c(Cl)cc23)[C@@H](C)C1
- IC50 (NCI-H358 [1]): 14.2 µM
- IC50 (MIA PaCa-2 [2]): 24.2 µM
- Activity [3]: inactive
- Activity [4]: Active
- Activity [5]: inactive

SMILES: C=CC(=O)N1CCN(c2nc(=O)n(-c3c(C)ccnc3C(C)C)c3nc(-c4c(O)cccc4F)c(F)cc23)[C@@H](C)C1 [SOTORASIB]
- IC50 (MIA PaCa-2 [6]): 0.022 µM

SMILES: C=CC(=O)N1CCN(c2nc(=O)n(-c3ccc(C(=O)NCCOCCOCCOCCOCC(=O)N[C@H](C(=O)N4C[C@H](O)C[C@H]4C(=O)NCc4ccc(-c5scnc5C)cc4)C(C)(C)C)cc3C(C)C)c3cc(-c4ccccc4Cl)c(Cl)cc23)[C@@H](C)C1
- inhibition (NCI-H358 [7]): Active
- IC50 (NCI-H358 [1]): 11.1 µM
- IC50 (MIA PaCa-2 [2]): 17.9 µM
- Activity [3]: inactive
- Activity [4]: Active
- Activity [5]: inactive
- Activity [8]: Dose-Dependent Effect

SMILES: C=CC(=O)N1CCN(c2nc(=O)n(-c3ccc(C(=O)NCCCC(=O)Nc4cccc5c4CN(C4CCC(=O)NC4=O)C5=O)cc3C(C)C)c3cc(-c4ccccc4Cl)c(Cl)cc23)[C@@H](C)C1 (some centres not stated)
- Activity [11]: inactive
- Activity [12]: inactive
- IC50 (NCI-H358 [1]): 22.7 µM
- IC50 (MIA PaCa-2 [2]): 17.1 µM

SMILES: C=CC(=O)N1CCN(c2nc(=O)n(-c3ccc(C(=O)NCc4cn(CCOCCOCCOCCOCC(=O)N[C@H](C(=O)N5C[C@H](O)C[C@H]5C(=O)NCc5ccc(-c6scnc6C)cc5)C(C)(C)C)nn4)cc3C(C)C)c3cc(-c4ccccc4Cl)c(Cl)cc23)[C@@H](C)C1
- inhibition (NCI-H358 [7]): Active
- IC50 (NCI-H358 [1]): 17.1 µM
- IC50 (MIA PaCa-2 [2]): 24.3 µM
- Activity [3]: inactive
- Activity [4]: Active
- Activity [5]: inactive

Further lines, results first:

- IC50 (NCI-H358 [1]): 1.48 µM
- IC50 (MIA PaCa-2 [2]): 0.77 µM
SMILES: C=CC(=O)N1CCN(c2nc(=O)n(-c3ccccc3C(C)C)c3cc(-c4ccccc4Cl)c(Cl)cc23)[C@@H](C)C1

- IC50 (NCI-H358 [9]): 0.001 µM
SMILES: C=C(F)C(=O)N1CCN(c2nc(OC[C@@H]3CCCN3C)nc3c2CCN(c2cccc4cccc(Cl)c24)C3)C[C@@H]1CC#N [ADAGRASIB]

- Occ [10]: > 75%
SMILES: C=CC(=O)N1CCN(c2ncnc3c(F)c(-c4c(O)cccc4F)c(Cl)cc23)CC1

- IC50 (NCI-H358 [13]): 0.51 µM
- IC50 (MIA PaCa-2 [14]): 4.14 µM
SMILES: C=CC(=O)N1CCN(c2nc(NCCCN3CCN(CCCNc4cccc5c4C(=O)N(C4CCC(=O)NC4=O)C5=O)CC3)nc3c(F)c(-c4cc(O)cc5ccccc45)c(Cl)cc23)CC1 (configuration not stated)

- EC50 (GTPase KRas): 0.32 µM
SMILES: C=C(F)C(=O)N1CCN(c2nc(OC[C@@H]3CCCN3CCCOCCC(=O)N[C@H](C(=O)N3C[C@H](O)C[C@H]3C(=O)NCc3ccc(-c4scnc4C)cc3)C(C)(C)C)nc3c2CCN(c2cccc4cccc(Cl)c24)C3)C[C@@H]1CC#N

- IC50 (NCI-H358 [1]): > 10 µM
- IC50 (MIA PaCa-2 [2]): > 10 µM
SMILES: C=CC(=O)N1CCN(c2nc(=O)n(-c3ccc(C(=O)O)cc3C(C)C)c3cc(-c4ccccc4Cl)c(Cl)cc23)[C@@H](C)C1

— ChEMBL document CHEMBL5236664, “Design, synthesis and biological evaluation of KRASG12C-PROTACs” (Bioorg Med Chem, 2023)
